Patent US8124121B2, “Flavors, flavor modifiers, tastants, taste enhancers, umami or sweet tastants, and/or enhancers and use thereof” (Senomyx, Inc., priority 2003, dated 2012)

Key:
[1] = test system: HEK293-Gα15 cells; assay: FLIPR assay on HEK293-Gα15 cells not expressing the human sweet receptor (receptor dependency control); assay type: cell-based
From the text: In order to determine the dependency of hT1R2/hT1R3 for the cell response to different stimuli, selected compounds were subjected to a similar analysis on HEK293-Gα15 cells (not expressing the human sweet receptor).

[2] = test system: savory taste, human panelists; assay: Umami/savory flavor experiments using human panelists (trained panel, difference from reference); assay type: in vivo; conditions: 12 mM MSG + cpd vs reference 12 mM MSG + 100 μM IMP
Description: General Panelist Selection: Basic screening of sensory taste testers: Potential panelists were tested for their abilities to rank and rate intensities of solutions representing the five basic tastes. Panelists ranked and rated intensity of five different concentrations of each of the five following compounds: sucrose (sweet), sodium chloride (salty), citric acid (sour), caffeine (bitter), and monosodium glutamate (savory). In order to be selected for participation in testing, panelists needed to correctly rank and rate samples for intensity, with a reasonable number of errors
Preliminary Taste Tests: The panelists selected in the above procedure were deemed qualified for performing Preliminary Taste Testing procedures. The preliminary taste tests are used to evaluate new compounds for intensity of basic tastes and off-tastes. A small group of panelists (n=5) taste approximately 5 concentrations of the compound (range typically between 1-100 μM, in half-log cycles, e.g., 1, 3, 10, 30, and 100 μM) in water and in a solution of 12 mM MSG to evaluate enhancement. Panelists rate the five basic tastes (sweet, salty, sour, bitter, and savory) as well as off-tastes (such as chemical, metallic, sulfur) on a labeled magnitude scale. Samples are served in 10 mL portions at room temperature. The purpose of the test is to determine the highest concentration at which there is no objectionable off-taste, and determine if obvious savory taste or enhancement of savory taste exists at any of the concentrations tested.
Trained Panelist Selection: A trained expert panel was used to further evaluate compounds that had been tested with the preliminary taste test.
Panelists for the trained panel were selected from the larger group of qualifying taste panelists. Panelists were further trained on savory taste by ranking and rating experiments using MSG and IMP combinations. Panelists completed a series of ranking, rating, and difference from reference tests with savory solutions. In ranking and rating experiments, panelists evaluated easy MSG concentrations (0, 6, 18, 36 mM) and more difficult MSG concentrations (3, 6, 12, 18 mM MSG) in water.
Compound testing with Trained Panel: Compounds tested by the trained panel were evaluated in difference from reference experiments. […] Test samples were solutions with varying amounts of MSG, IMP, and the compound.
Compounds were tested against the reference in samples with and without 12 mM MSG. All samples were presented in 10 ml volumes at room temperature. Two sessions were completed for each compound tested to evaluate panel reproducibility.

[3] = test system: un-induced I-17 cells; assay: FLIPR assay on un-induced I-17 cells (receptor dependency control); assay type: cell-based; conditions: I-17 cells not induced with mifepristone; compounds presented at 10 μM
Description: In order to determine the dependency of hT1R1/hT1R3 for the cell response to different stimuli, selected compounds were subjected to a similar analysis on I-17 cells that had not been induced for receptor expression with mifepristone (designated as un-induced I-17 cells). […] Compounds were presented to un-induced umami cells at […]—or three times the maximum stimulation used in the dose-response analysis.

O=C(CO)[C@@H](O)[C@H](O)[C@H](O)CO [D-Fructose]
functional response in the FLIPR assay using HEK293-Gα15 cells [1]: do not show any functional response

COc1cc(C)ccc1CNC(=O)C(=O)NCCc1ccc(C)cn1 [Example 157, N^1-(2-methoxy-4-methylbenzyl)-N^2-(2-(5-methylpyridin-2-yl)ethyl)oxalamide]
Taste Data: concentration of cpd with 12 mM MSG that is as strong as 12 mM MSG + 100 μM IMP [2]: 12 mM MSG + 0.3 μM cpd as strong as
melting point: 116 to 117 °C

N[C@@H](CCC(=O)O)C(=O)[O-].[Na+] [monosodium glutamate]
functional response in the FLIPR assay using un-induced umami cells [3]: do not show any functional response
